From ChEMBL document CHEMBL4311942, “Design of Trp-Rich Dodecapeptides with Broad-Spectrum Antimicrobial Potency and Membrane-Disruptive Mechanism” (J Med Chem, 2019)
Converted amounts (≈) assume the structure as drawn. Where a SMILES comes first, the peptide text is derived from it.

Tests used:
[1] = system: Escherichia coli; test: Antibacterial activity against Escherichia coli UB1005 incubated for 18 to 24 hrs by broth microdilution method; assay type: functional
[2] = system: Erythrocyte; test: Haemolytic activity in human erythrocytes assessed as lowest concentration causing 5% hemolysis after 1 hr; assay type: ADME, cell-based
[3] = system: Staphylococcus epidermidis; test: Antibacterial activity against Staphylococcus epidermidis ATCC 12228 incubated for 18 to 24 hrs by broth microdilution method; assay type: functional
[4] = system: Salmonella typhimurium; test: Antibacterial activity against Salmonella enterica serovar typhimurium C77-31 incubated for 18 to 24 hrs by broth microdilution method; assay type: functional, Salmonella enterica subsp. enterica serovar Typhimurium
[5] = system: Staphylococcus aureus; test: Antibacterial activity against Staphylococcus aureus ATCC 25923 incubated for 18 to 24 hrs by broth microdilution method; assay type: functional
[6] = system: Escherichia coli; test: Antibacterial activity against Escherichia coli ATCC 25922 incubated for 18 to 24 hrs by broth microdilution method; assay type: functional
[7] = system: Staphylococcus aureus; test: Antibacterial activity against Staphylococcus aureus ATCC 29213 incubated for 18 to 24 hrs by broth microdilution method; assay type: functional
[8] = Therapeutic index, ratio of MHC for human RBC to geometric mean of peptide MIC for Escherichia coli ATCC 25922; assay type: toxicity; conditions: pooled result: one value given for 6 cell lines, strains, targets or settings, read-out: TI
[9] = system: RAW264.7; test: Cytotoxicity against mouse RAW264.7 cells assessed as cell survival at <= 32 uM after 24 hrs by MTT assay relative to control; assay type: cell-based; conditions: raw264.7, 24 h
[10] = system: Acinetobacter baumannii; test: Antibacterial activity against Acinetobacter baumannii AB1902 clinical isolate incubated for 18 to 24 hrs by broth microdilution method; assay type: functional
[11] = system: Escherichia coli; test: Antibacterial activity against Escherichia coli 20411 clinical isolate incubated for 18 to 24 hrs by broth microdilution method; assay type: functional
[12] = system: Pseudomonas aeruginosa; test: Antibacterial activity against Pseudomonas aeruginosa 25349 clinical isolate incubated for 18 to 24 hrs by broth microdilution method; assay type: functional
[13] = system: Acinetobacter baumannii; test: Antibacterial activity against Acinetobacter baumannii AB1901 clinical isolate incubated for 18 to 24 hrs by broth microdilution method; assay type: functional
[14] = system: Escherichia coli; test: Antibacterial activity against ciprofloxacin-resistant Escherichia coli ATCC 25922 incubated for 18 to 24 hrs; assay type: functional
[15] = system: Staphylococcus aureus; test: Antibacterial activity against Staphylococcus aureus 11011 incubated for 18 to 24 hrs by broth microdilution method; assay type: functional
[16] = Resistance index, ratio of MIC for antibacterial activity against ciprofloxacin-resistant Escherichia coli to MIC for Escherichia coli ATCC 25922 incubated for 18 to 24 hrs by broth microdilution method; assay type: functional
[17] = Salmonella enterica subsp. enterica serovar Typhimurium

| Compound | MIC [1] [µM] | MHC [2] [µM] | MIC [3] [µM] | MIC [4] [µM] | MIC [5] [µM] | MIC [6] [µM] | MIC [7] [µM] | selectivity ratio [8] | Activity [9] | MIC [10] [µM] | MIC [11] [µM] | MIC [12] [µM] | MIC [13] [µM] | MIC [14] [µM] | MIC [15] [µM] | Ratio [16] | MIC [4, 17] [µM] |
| --- | --- | --- | --- | --- | --- | --- | --- | --- | --- | --- | --- | --- | --- | --- | --- | --- | --- |
| CC(C)C[C@H](NC(=O)[C@H](Cc1c[nH]c2ccccc12)NC(=O)[C@H](CCCCN)NC(=O)[C@H](CCCNC(=N)N)NC(=O)[C@@H](NC(=O)[C@H](Cc1c[nH]c2ccccc12)NC(=O)[C@H](CCCCN)NC(=O)[C@H](CCCNC(=N)N)NC(=O)[C@H](CC(C)C)NC(=O)[C@H](Cc1c[nH]c2ccccc12)NC(=O)[C@@H](N)CCCNC(=N)N)[C@@H](C)O)C(=O)N[C@@H](CCCCN)C(N)=O (H-RWLRKWTRKWLK-NH2) | 4 (≈ 7.02 µg/mL) | > 128 | 8 (≈ 14 µg/mL) | 16 (≈ 28.1 µg/mL) | 16 (≈ 28.1 µg/mL) | 4 (≈ 7.02 µg/mL) | 8 (≈ 14 µg/mL) | 32 | Non-Toxic |  |  |  |  |  |  |  |  |
| CC(C)(O/N=C(\C(=O)N[C@@H]1C(=O)N2C(C(=O)[O-])=C(C[n+]3ccccc3)CS[C@H]12)c1csc(N)n1)C(=O)O [CEFTAZIDIME] | 0.25 (≈ 0.137 µg/mL) |  | 16 (≈ 8.75 µg/mL) | 0.5 (≈ 0.273 µg/mL) | 32 (≈ 17.5 µg/mL) | 0.5 (≈ 0.273 µg/mL) | 16 (≈ 8.75 µg/mL) |  |  | > 128 | 0.25 (≈ 0.137 µg/mL) | 32 (≈ 17.5 µg/mL) | > 128 | 16 (≈ 8.75 µg/mL) | 16 (≈ 8.75 µg/mL) | 32 |  |
| GENTAMICIN | 4 |  | 0.5 |  | 0.25 | 4 | 0.5 |  |  | > 128 | 1 | 2 | > 128 | 4 | 1 | 1 | 8 |
| CC1COc2c(N3CCN(C)CC3)c(F)cc3c(=O)c(C(=O)O)cn1c23 (stereo unspecified) [OFLOXACIN] | 0.5 (≈ 0.181 µg/mL) |  | 0.5 (≈ 0.181 µg/mL) | 0.25 (≈ 0.0903 µg/mL) | 1 (≈ 0.361 µg/mL) | 0.125 (≈ 0.0452 µg/mL) | 0.5 (≈ 0.181 µg/mL) |  |  | 32 (≈ 11.6 µg/mL) | 0.125 (≈ 0.0452 µg/mL) | 4 (≈ 1.45 µg/mL) | 32 (≈ 11.6 µg/mL) | 0.5 (≈ 0.181 µg/mL) | 1 (≈ 0.361 µg/mL) | 4 |  |
| COLISTIN | 0.5 |  | 64 |  | 128 | 0.5 | 128 |  |  | 0.5 | 0.5 | 0.5 | 1 | 0.5 | 32 | 1 | 0.5 |
